Entries after “also recorded” stand apart in the source; their conditions may differ.
Legend:
MHFD offspring [1] = test: Three-chamber social test in MHFD offspring; format: in vivo, mice; conditions: for preference for social novelty / sociability: intranasal oxytocin approximately 200 μg/kg, 30 min prior; for preference for social novelty (time interacting with novel vs familiar mouse) / sociability (time interacting with mouse vs empty cage): in drinking water from weaning for 4 weeks, 1×10^8 organisms/mouse/day
Description: Crawley's three-chamber test for sociability and preference for social novelty was performed as described (Silverman et al., 2010). In brief, the mouse first experienced a 10-minute period of habituation during which it was allowed to freely explore a 60×40×23 cm Plexiglass arena divided into three equally sized, interconnected chambers (Left, Center, Right). Sociability was measured during a second ten-minute period in which the subject could interact either with an empty wire cup (Empty) or a wire cup containing an age and sex-matched stranger conspecific (Mouse 1). Time spent interacting (sniffing, crawling upon) with either the empty cup or the stranger mouse contained in the other cup as well as time spent in each chamber was recorded using the AnyMaze software, by independent observers. Empty cup placement in the Left or Right chamber during the Sociability period was counterbalanced between trials. Finally, preference for social novelty was assayed by introducing a second stranger mouse (Mouse 2) into the previously the empty wire cup. Time spent in each chamber as well as time spent interacting with either Mouse 1 or Mouse 2 was recorded using the automated AnyMaze software by independent observers. Lactobacillus reuteri MM4-1A (ATCC-PTA-6475) and Lactobacillus johnsonii (ATCC 33200) were cultured anaerobically in MRS broth in a 90% N2, 5% CO2, 5% H2 environment. L. reuteri was heat-killed by keeping the bacteria at 80° C. for 20 minutes (Wang et al., 2010). Bacterial viability was assessed by plating and the efficacy of the heat-kill procedure was confirmed by the absence of colony growth following plating. Cultures were centrifuged, washed, and resuspended in anaerobic solution (PBS) and frozen at −80° C. until use. PBS, live or heat-killed L. reuteri were added to the drinking water, which was changed daily to minimize dosage variability. Whereas the experimental group received live bacteria, one control group received identically prepared cultures of heat-killed bacteria. A second group of control mice received water treated with PBS alone. Live and heat-killed L. reuteri were supplied at a dosage of 1×10^8 organisms/mouse/day continuously in drinking water. Mice consumed the treated water ad libitum over the treatment period. The treated drinking water for each group was replaced daily two hours prior to the onset of the dark cycle to minimize variation in microbial exposure. Behavioral assays were initiated after 4-weeks of L. reuteri or control treatment. The protocol of the L. johnsonii preparation and administration matched the L. reuteri protocol. Fecal samples for sequencing and tissue used in the immunofluorescence studies were collected at the end of the treatment. Oxytocin was obtained from Tocris Bioscience (product 1910) and solubilized in 10% dimethyl sulfoxide (DMSO) in PBS. 10% DMSO in PBS was used as the vehicle control. Mice received oxytocin intranasally (at approximately 200 μg/kg) thirty minutes prior to behavior. 1.25 μl of oxytocin or vehicle solution was injected into each nostril from P10 pipette. Oxytocin dose was selected according to dosages reported to rescue social behavior in genetic models phenotypically expressing ASD-like behaviors (Penagarikano et al., 2015).

MHFD offspring [2] = test: Open field test in MHFD offspring; format: in vivo, mice; conditions: L. reuteri in drinking water
Description: Mice were placed in an open arena (40×40×20 cm) and allowed to explore freely for 10 minutes while their position was continually monitored using tracking software (ANY-Maze). Tracking allowed for measurement of distance traveled, speed, and position in the arena throughout the task. Time spent in the center of the arena, defined as the interior 20×20 cm, was recorded. Lactobacillus reuteri MM4-1A (ATCC-PTA-6475) and Lactobacillus johnsonii (ATCC 33200) were cultured anaerobically in MRS broth in a 90% N2, 5% CO2, 5% H2 environment. L. reuteri was heat-killed by keeping the bacteria at 80° C. for 20 minutes (Wang et al., 2010). Bacterial viability was assessed by plating and the efficacy of the heat-kill procedure was confirmed by the absence of colony growth following plating. Cultures were centrifuged, washed, and resuspended in anaerobic solution (PBS) and frozen at −80° C. until use. PBS, live or heat-killed L. reuteri were added to the drinking water, which was changed daily to minimize dosage variability. Whereas the experimental group received live bacteria, one control group received identically prepared cultures of heat-killed bacteria. A second group of control mice received water treated with PBS alone. Live and heat-killed L. reuteri were supplied at a dosage of 1×10^8 organisms/mouse/day continuously in drinking water. […]

Compound	preference for social novelty (MHFD offspring [1])	sociability (MHFD offspring [1])	preference for social novelty (MHFD offspring [1]; listed as Oxytocin)	sociability (MHFD offspring [1]; listed as Oxytocin)	time exploring the center of the open field arena (anxiety-related behavior) (MHFD offspring [2])	preference for social novelty (time interacting with novel vs familiar mouse) (MHFD offspring [1])	sociability (time interacting with mouse vs empty cage) (MHFD offspring [1])	preference for social novelty (time interacting with novel vs familiar mouse) (MHFD offspring [1]; listed as live L. reuteri)	sociability (time interacting with mouse vs empty cage) (MHFD offspring [1]; listed as live L. reuteri)	preference for social novelty (chamber containing Mouse 2, FIG. 16B) (MHFD offspring [1]; in drinking water, 4 weeks)	sociability (chamber containing a mouse, FIG. 16A) (MHFD offspring [1]; in drinking water, 4 weeks)
CC[C@H](C)[C@@H]1NC(=O)[C@H](Cc2ccc(O)cc2)NC(=O)[C@@H](N)CSSC[C@@H](C(=O)N2CCC[C@H]2C(=O)N[C@@H](CC(C)C)C(=O)NCC(N)=O)NC(=O)[C@H](CC(N)=O)NC(=O)[C@H](CCC(N)=O)NC1=O [oxytocin]	improved	improved sociability	restored	restored	–	–	–	–	–	–	–
Lactobacillus reuteri MM4-1A (ATCC-PTA-6475) [L. reuteri]	–	–	–	–	failed to rescue the changes in anxiety; also recorded: did not significantly affect this behavior	significantly improved	significantly improved sociability	rescued	rescued sociability	improved	improved MHFD offspring sociability

From US11135252B2, “Probiotic therapies for developmental disorders and other neurological disorders” (Baylor College of Medicine, priority 2016, dated 2021)
